Source: patent publication US20050256171A1, “Pyrrolidine derivatives as tryptase inhibitors” (Altana Pharma A G, priority 2002, published 2005)
Structures can show the parent of a compound that is named as a salt.

Target: human tryptase
Assay: Inhibition of human tryptase (apparent dissociation constant, chromogenic substrate tos-Gly-Pro-Arg-pNA)
Type: biochemical
Details: pKiapp = -log Kiapp (mol/l); in the presence of substrate; heparin 0.1-50 μg/ml
Source text: The documented pathophysiological effects of mast cell tryptase are brought about directly by the enzymatic activity of the protease. Accordingly, they are reduced or blocked by inhibitors which inhibit the enzymatic activity of tryptase. A suitable measure of the affinity of a reversible inhibitor for the target protease is the equilibrium dissociation constant Ki of the enzyme/inhibitor complex. This value of Ki can be determined via the influence of the inhibitor on the tryptase-induced cleavage of a chromogenic peptide-p-nitroanilide substrate or of a fluorogenic peptide-aminomethylcoumarin substrate.
The dissociation constants for the tryptase/inhibitor complexes are determined under equilibrium conditions in accordance with the general proposals of Bieth (Bieth J G, Pathophysiological Interpretation of kinetic constants of protease inhibitors, Bull. Europ. Physiopath. Resp. 16:183-195,1980) and the methods of Sommerhoff et al. (Sommerhoff C P et al., A Kazal-type Inhibitor of human mast cell tryptase: Isolation from the medical leech Hirudo medicinalis, characterization, and sequence analysis, Biol. Chem. Hoppe-Seyler 375: 685-694, 1994).
Human tryptase is prepared pure from lung tissue or is prepared by recombination; the specific activity of the protease which has been determined by titration is normally more than 85% of the theoretical value. Constant amounts of the tryptase are incubated in the presence of heparin (0.1-50 μg/ml) to stabilize the protease with increasing amounts of the inhibitors. After equilibrium has been reached between the reactants, the remaining enzymic activity is determined after addition of the peptide-p-nitroanilide substrate tos-Gly-Pro-Arg-pNA, whose cleavage is followed at 405 nm for 3 min. Alternatively, the remaining enzymatic activity can also be determined using fluorogenic substrates. The apparent dissociation constants Klapp (i.e. in the presence of substrate) are then found by nonlinear regression by fitting the enzyme rates to the general equation for reversible inhibitors (Morrison J F, Kinetics of the reversible inhibition of enzyme catalysed reactions by tight-binding inhibitors, Biochim. Biophys. Acta 185, 269-286, 1969): Vl/V0=1−{Et+It+Klapp−[(Et+It+Klapp)^2−4EtIt]^1/2}/2Et
In this, Vl and V0 are the rates respectively in the presence and absence of the inhibitor and Et and It are the concentrations of tryptase and of the inhibitor.
The apparent dissociation constants found for the compounds of the invention are evident from the following table A, in which the numbers of the compounds correspond to the numbers of the compounds in the examples [pKlapp=−logKlapp(mol/l)].

pKiapp	SMILES
6.57	COC(=O)Cc1cc(C#CCOC(=O)NCc2ccc(N)nc2)cc(C#CCOC(=O)NC2CC(C(=O)OC)N(C(=O)CCc3ccc(CN)cc3)C2)c1 (stereo not shown) [Compound 4, dihydrochloride]
6.00	COC(=O)Cc1cc(C#CCOC(=O)NCc2ccnc(N)c2)cc(C#CCOC(=O)NC2CC(C(=O)OC)N(C(=O)CCc3ccc(CN)cc3)C2)c1 (stereo not shown) [Compound 5, dihydrochloride]
7.19	COC(=O)Cc1cc(C#CCOC(=O)NCc2ccnc(N)c2)cc(C#CCOC(=O)NC2CC(C(=O)OC)N(C(=O)CCc3cccc(CN)c3)C2)c1 (stereo not shown) [Compound 6, dihydrochloride]
7.80	COC(=O)Cc1cc(C#CCOC(=O)NCc2ccc(N)nc2)cc(C#CCOC(=O)NC2CC(C(=O)OC)N(C(=O)CCc3cccc(CN)c3)C2)c1 (stereo not shown) [Compound 3, dihydrochloride]
